Results taken from article PMC10946813, “Lipophilicity Modulations by Fluorination Correlate with Membrane Partitioning” (Angewandte Chemie (International Ed. in English), 2023).
“And” between values parts separate entries of the source, which are not always exact repeats. Identical values can stand only once.

What was measured:
[1] = Molar membrane partition coefficient (logKp) by 19F MAS solid-state NMR in lipid vesicles; assay type: physicochemical; details: for Molar Partition Coefficient (logKP): POPC; for logKp Measured as single compound (3.30 mol%): Table 1; for logKp Measured as single compound (3.30 mol%) / logKp Measured as equimolar mixture: POPC bilayers hydrated at 20 % w/v; for increase in logKp: equimolar mixture of 9 and 10 at 3.3 mol % versus compound alone
Procedure: The principle of the method is explained in Figure 2 (with a detailed description of the protocol provided in Supporting Information). The method utilizes ^19F MAS NMR to quantitate the partitioning of the fluorinated compounds between the aqueous and membrane phases. […] Experimentally, it was determined that only moderate spinning speeds (10 kHz) and low power decoupling (10 kHz decoupling field) were required to obtain well resolved spectra, even at these high magnetic fields; with motional processes within the liquid crystalline lipid bilayer averaging the potentially large chemical shielding anisotropy and dipolar couplings experienced by the fluorine spins. The application of low spinning speeds and radiofrequency decoupling fields also reduces sample heating, whilst minimising the pelleting of the vesicles against the rotor wall. The absence of any discernable sidebands, resulting from incomplete averaging, simplifies the analysis, as this precludes the need to integrate the entire family of sidebands.
With knowledge of the number of water ( nW ) and lipid ( nM ) molecules, the molar partition coefficient ( KP) is readily determined.
To determine how the concentration of the compound and bilayer hydration influenced the measured logK P, a systematic study of these parameters was undertaken for compound 10 (Figure S2, Table S1). Samples were prepared where the lipids were hydrated at levels between 10 to 30 %(w/v), a range widely used to study the physical properties of lipid bilayers. […] On the basis of the reproducibility of these figures, all subsequent experiments were conducted at 20 % (w/v) hydration with a compound/lipid ratio of 0.033. In addition to providing excellent reproducibility, these concentrations afforded good signal to noise ratios with sensible spectral acquisition times. […]
(§1) to the r.f. field strength then care should be taken to ensure that the two compounds are similarly excitated. Quantitative data also requires the complete relaxation of the nuclei between scans. For the studies reported here, saturation recovery measurements were performed on each system, with spectra then acquired with a recycle delay of five times T1. It […]
(§2) shorter T1 values than that of the substrate in aqueous solution, mirroring the observation […]
(§3) In addition to more general NMR considerations, care must also be exercised to ensure that the signal intensity, particularly that of the membrane bound state, is not influenced by anisotropic interactions that may be present. Due to the molecular dynamics within the lipid bilayer, many of these interactions are already motionally averaged facilitating their removal.
(§4) The application of low-power (10 kHz) SPINAL-64 decoupling[2] is sufficient to remove the weak scalar and dipolar couplings that are present within the fluid lipid bilayer. Care was taken […]
(§5) linebroadening due to temperature dependent changes in chemical shift. Similarly, data was acquired with both 5 and 10 kHz MAS and no change in isotropic chemical shift was observed […]
(§6) However, increasing the spinning speed from 5 to 10 kHz ensured complete averaging the residual chemical shielding anisotropy and other anisotropic contrbutions to the spectra and the presence of a single isotropic resonance for each population. The absence of any discernable sidebands in spectra acquired at 10 kHz allows the accurate integration of the signal intensity without the need to integrate the entire family of sidebands which would be required for a quantitative analysis.
(§7) Care should be taken when extending this to other compounds where the anisotropy may larger, either due to a larger chemical shielding anisotropy at the fluorine site studied or the application of higher magnetic as this would complicate the signal integration.
Prior to Fourier Transform, data was processed with 1Hz exponential line broadening and zero filled with 16384 points. The resulting spectra was phased and base line corrected. All processing was performed in Matlab using matNMR[5]. […]

[2] = Octanol-water partition coefficient (logP OW), 19F NMR method with reference compound
[3] = Molar membrane partition coefficient (logKp) by 19F MAS NMR in POPC/cholesterol bilayers; assay type: physicochemical; details: for Molar Partition Coefficient (logKP): Table S3, POPC, 20% (w/v), substrate 3.3 mol%; for fall in logKP: increasing cholesterol up to 50 mol % versus pure POPC membranes
Description: A major advantage of the method presented here compared to logP determination is that it can be applied to membranes of arbitrary complexity, enabling the analysis of the influence of such properties as headgroup size/charge and chain length/saturation. […] As an example of this kind of investigation, a mixed lipid system was employed. In particular, we investigated how increasing concentrations of cholesterol, a commonly found sterol in eukaryotic cell membranes, influenced the membrane partitioning of 9 and 10 (Figure 5, Table S3). […] The fall in logK P mirrors earlier studies where a reduction in membrane partitioning for small molecules has been observed.[19] This reduction has been attributed to the […] of the acyl chain packing and their favourable interactions with the cholesterol.[20] […]
as §1, §2, §3, §4, §5, §6, §7
Prior to Fourier Transform, data was processed with 1Hz exponential line broadening and zero filled with 16384 points. The resulting spectra was phased and base line corrected. All processing was performed in Matlab using matNMR[5]. The subsequent resonances where fitted to Lorentzian peaks using custom scripts in Matlab which are available from the authors.
1.4 Calculation of the molar membrane partition coefficients
In the slow exchange limit the molar partition coefficient can then be calculated as:
K = n",$/n$ = C",$/’(’)*.n% = I",$ . n%
Where C",+ and C",$ are the concentrations of the substrate in the membrane and aqueous phases respectively and n", n$ and n% are the number of substrate, lipid and water molecules respectively. The ratio C",$/’(’)*/C",%/’(’)* can be determined directly from the ratio of the integrals from the signals arising from the lipidic and aqueous phases (See Figure 2, main paper), whilst the ratio of n%/n$ represents the ratio of water to lipid molecules in the membrane, the degree of hydration.
2 Influence of exchange between the membrane and aqueous phase on 19F MAS-NMR Lineshape (Figure S1)
The influence of chemical exchange is well characterised in the liquid state, however […]

[4] = Table S2, one 19F resonance evaluated
[5] = Table S2, glycosides, first listed 19F resonance
[6] = Table S2, glycosides, second listed 19F resonance
[7] = individual experiment (octanol/water), one of triplicate
[8] = octanol/water, Average logP, triplicate
[9] = octanol/water, Error (mean logP with standard deviation), triplicate, three decimals

Structure (SMILES): OC[C@H](F)C[C@@H](F)CO (single isomer, unassigned) [ent-15]
- Molar Partition Coefficient (logKP) [1, 4]: 1.82 ± 0.06

Structure (SMILES): OCC1CC1(F)F (stereo not drawn) [compound 1]
- Molar Partition Coefficient (logKP) [1, 4]: 2.54 ± 0.08

Structure (SMILES): OC[C@H]1C[C@@H]1F [compound 2]
- Molar Partition Coefficient (logKP) [1, 4]: 2.17 ± 0.05

Structure (SMILES): OCC1(F)CC1 [compound 3]
- Molar Partition Coefficient (logKP) [1, 4]: 2.08 ± 0.01

Structure (SMILES): OC[C@@H]1C[C@@H]1F [compound 4]
- Molar Partition Coefficient (logKP) [1, 4]: 2.02 ± 0.04

Structure (SMILES): CO[C@H]1O[C@H](CF)[C@@H](F)[C@H](O)[C@H]1O [compound 5]
- Molar Partition Coefficient (logKP) [1, 5]: 1.98 ± 0.02
- Molar Partition Coefficient (logKP) [1, 6]: 1.98 ± 0.03
- logP [2, 7]: -0.698 and -0.708 and -0.717
- logP [2, 8]: -0.71
- logP [2, 9]: -0.707

Structure (SMILES): CO[C@@H]1O[C@H](CF)[C@@H](F)[C@H](O)[C@H]1O [compound 6]
- Molar Partition Coefficient (logKP) [1, 5]: 1.93 ± 0.16
- Molar Partition Coefficient (logKP) [1, 6]: 1.95 ± 0.15
- logP [2, 7]: -1.036 and -1.054 and -1.053
- logP [2, 8]: -1.05
- logP [2, 9]: -1.05

Structure (SMILES): CO[C@H]1O[C@H](CF)[C@H](F)[C@H](O)[C@H]1O [compound 7, methyl 4,6-dideoxy-4,6-difluoro-α-D-galactopyranoside]
- Molar Partition Coefficient (logKP) [1, 5]: 1.80 ± 0.05
- Molar Partition Coefficient (logKP) [1, 6]: 1.87 ± 0.14
- logP [2, 7]: -0.905 and -0.898
- logP [2, 8]: -0.9
- logP [2, 9]: -0.902

Structure (SMILES): CO[C@@H]1O[C@H](CF)[C@H](F)[C@H](O)[C@H]1O [compound 8, methyl 4,6-dideoxy-4,6-difluoro-β-D-galactopyranoside]
- Molar Partition Coefficient (logKP) [1, 5]: 1.69 ± 0.00
- Molar Partition Coefficient (logKP) [1, 6]: 1.64 ± 0.06
- logP [2, 7]: -1.257 and -1.242 and -1.253
- logP [2, 8]: -1.25
- logP [2, 9]: -1.25

Structure (SMILES): OCCCC(F)(F)CO [compound 9]
- logKp Measured as single compound (3.30 mol%) [1]: 2.01±0.02
- Molar Partition Coefficient (logKP) [1, 4]: 2.01 ± 0.02
- Molar Partition Coefficient (logKP) ([1]; Table S3, membrane cholesterol 0 mol %, 20% (w/v), substrate 3.3 mol%): 2.01 ± 0.02
- increase in logKp [1]: 0.2 units
- logKp Measured as equimolar mixture ([1]; mixture 9+10, 1.65 mol% each): 1.99±0.09
- logKp Measured as equimolar mixture ([1]; mixture 9+10, 3.30 mol% each): 2.18±0.07
- Molar Partition Coefficient (logKP) ([3]; membrane cholesterol 25 mol %): 1.87 ± 0.03
- Molar Partition Coefficient (logKP) ([3]; membrane cholesterol 50 mol %): 1.77 ± 0.02
- fall in logKP [3]: 0.24

Structure (SMILES): OCCC(F)(F)CCO [compound 10]
- logKp Measured as single compound (3.30 mol%) [1]: 1.83±0.04 and 1.83±0.11
- logKP ([1]; Table S1, hydration 10 % w/v, substrate/lipid 0.010 mole/mole): 1.73
- logKP ([1]; Table S1, hydration 10 % w/v, substrate/lipid 0.033 mole/mole): 1.91
- logKP ([1]; Table S1, hydration 10 % w/v, substrate/lipid 0.100 mole/mole): 1.81
- logKP ([1]; Table S1, hydration 20 % w/v, substrate/lipid 0.010 mole/mole): 1.97
- logKP ([1]; Table S1, hydration 20 % w/v, substrate/lipid 0.033 mole/mole, mean value (n=3)): 1.83
- logKP ([1]; Table S1, hydration 20 % w/v, substrate/lipid 0.100 mole/mole): 1.95
- logKP ([1]; Table S1, hydration 30 % w/v, substrate/lipid 0.010 mole/mole): 1.81
- logKP ([1]; Table S1, hydration 30 % w/v, substrate/lipid 0.033 mole/mole): 1.69
- logKP ([1]; Table S1, hydration 30 % w/v, substrate/lipid 0.100 mole/mole): 1.85
- logKP, Mean ([1]; Table S1, mean over all hydrations (10-30 % w/v) and substrate/lipid ratios (0.010-0.100)): 1.85
- Molar Partition Coefficient (logKP) [1, 4]: 1.83 ± 0.04
- mean logKP ([1]; compound concentration 1 to 10 mol % (with respect to total lipid), mean across all levels of hydration): 1.85±0.02
- increase in logKp [1]: 0.2 units
- mean logKP ([1]; lipids hydrated at 10 to 30 %(w/v), mean across the range of compound concentrations studied): 1.85±0.06
- logKp Measured as equimolar mixture ([1]; mixture 9+10, 1.65 mol% each): 1.84±0.01
- logKp Measured as equimolar mixture ([1]; mixture 9+10, 3.30 mol% each): 2.01±0.04
- logKp Measured as equimolar mixture ([1]; mixture 10+13, 3.30 mol% each): 1.88±0.11
- Kp at 0.01 mole/mole substrate/lipid ([1]; multilamellar POPC vesicles, Table S1, hydration 10 % w/v, substrate/lipid 0.010 mole/mole): 53.4
- Kp at 0.033 mole/mole substrate/lipid ([1]; multilamellar POPC vesicles, Table S1, hydration 10 % w/v, substrate/lipid 0.033 mole/mole): 81.8
- Kp at 0.1 mole/mole substrate/lipid ([1]; multilamellar POPC vesicles, Table S1, hydration 10 % w/v, substrate/lipid 0.100 mole/mole): 64.5
- Kp at 0.01 mole/mole substrate/lipid ([1]; multilamellar POPC vesicles, Table S1, hydration 20 % w/v, substrate/lipid 0.010 mole/mole): 93.9
- Kp at 0.033 mole/mole substrate/lipid ([1]; multilamellar POPC vesicles, Table S1, hydration 20 % w/v, substrate/lipid 0.033 mole/mole): 67.6
- Kp at 0.1 mole/mole substrate/lipid ([1]; multilamellar POPC vesicles, Table S1, hydration 20 % w/v, substrate/lipid 0.100 mole/mole): 89.4
- Kp at 0.01 mole/mole substrate/lipid ([1]; multilamellar POPC vesicles, Table S1, hydration 30 % w/v, substrate/lipid 0.010 mole/mole): 65.3
- Kp at 0.033 mole/mole substrate/lipid ([1]; multilamellar POPC vesicles, Table S1, hydration 30 % w/v, substrate/lipid 0.033 mole/mole): 49.2
- Kp at 0.1 mole/mole substrate/lipid ([1]; multilamellar POPC vesicles, Table S1, hydration 30 % w/v, substrate/lipid 0.100 mole/mole): 70.7
- Kp ([1]; multilamellar POPC vesicles, Table S1, mean over all hydrations (10-30 % w/v) and substrate/lipid ratios (0.010-0.100)): 71.6
- Molar Partition Coefficient (logKP) ([3]; membrane cholesterol 25 mol %): 1.74 ± 0.02
- Molar Partition Coefficient (logKP) ([3]; membrane cholesterol 50 mol %): 1.68 ± 0.05
- fall in logKP [3]: 0.17

Structure (SMILES): OCCC(F)CCO [compound 11]
- Molar Partition Coefficient (logKP) [1, 4]: 1.68 ± 0.08

Structure (SMILES): OCC(F)(F)CC(F)(F)CO [compound 13]
- logKp Measured as single compound (3.30 mol%) [1]: 2.40±0.07
- Molar Partition Coefficient (logKP) [1, 4]: 2.40 ± 0.07
- logKp Measured as equimolar mixture ([1]; mixture 10+13, 3.30 mol% each): 2.50±0.10

Structure (SMILES): OCC(F)CC(F)(F)CO (stereo not drawn) [compound 14]
- Molar Partition Coefficient (logKP) [1, 4]: 2.01 ± 0.01

Structure (SMILES): OC[C@@H](F)C[C@H](F)CO [compound 15]
- Molar Partition Coefficient (logKP) [1, 4]: 1.85 ± 0.10

Structure (SMILES): OC[C@@H](F)C[C@@H](F)CO [compound 16]
- Molar Partition Coefficient (logKP) [1, 4]: 1.71 ± 0.10
